# Measured values from ChEMBL document CHEMBL1150826, “Antibacterial diterpenes from the roots of Salvia blepharochlaena” (2001).
# The source made the active and inactive calls. The calls are words filed in the database; no cut-off is given here.
# Assays:
# [1] = system: Mycobacterium tuberculosis; test: Antimycobacterial activity against Mycobacterium tuberculosis by broth microdilution method; format: functional, organism-based
# [2] = system: Bacillus subtilis; test: Antimicrobial activity against Bacillus subtilis ATCC 6633 by disc-diffusion method; format: functional
# [3] = system: Staphylococcus aureus; test: Antimicrobial activity against Staphylococcus aureus ATCC 6538 by disc-diffusion method; format: functional
# [4] = system: Staphylococcus epidermidis; test: Antimicrobial activity against Staphylococcus epidermidis ATCC 12228 by tube dilution method; format: functional
# [5] = system: Staphylococcus aureus; test: Antimicrobial activity against Staphylococcus aureus ATCC 6538 by tube dilution method; format: functional
# [6] = system: Bacillus subtilis; test: Antimicrobial activity against Bacillus subtilis ATCC 6633 by tube dilution method; format: functional
# [7] = system: Staphylococcus epidermidis; test: Antimicrobial activity against Staphylococcus epidermidis ATCC 12228 by disc-diffusion method; format: functional
# [8] = system: Klebsiella pneumoniae; test: Antimicrobial activity against Klebsiella pneumoniae by disc-diffusion method; format: functional, organism-based
# [9] = system: Pseudomonas aeruginosa; test: Antimicrobial activity against Pseudomonas aeruginosa by disc-diffusion method; format: functional, organism-based
# [10] = system: Escherichia coli; test: Antimicrobial activity against Escherichia coli by disc-diffusion method; format: functional, organism-based
# [11] = system: Proteus mirabilis; test: Antimicrobial activity against Proteus mirabilis by disc-diffusion method; format: functional, organism-based
# [12] = system: Candida albicans; test: Antimicrobial activity against Candida albicans by disc-diffusion method; format: functional, organism-based
# [13] = system: Enterococcus faecalis; test: Antimicrobial activity against Enterococcus faecalis ATCC 29212 by disc-diffusion method; format: functional
# [14] = system: Enterococcus faecalis; test: Antimicrobial activity against Enterococcus faecalis ATCC 29212 by tube dilution method; format: functional
Structure (SMILES),Activity [1],inhibition zone (IZ) [2],inhibition zone (IZ) [3],MIC [4],MIC [5],MIC [6],inhibition zone (IZ) [7],inhibition zone (IZ) [8],inhibition zone (IZ) [9],inhibition zone (IZ) [10],inhibition zone (IZ) [11],inhibition zone (IZ) [12],inhibition zone (IZ) [13],MIC [14]
Cc1c(O)cc2c3c(ccc2c1C)C=C(C(C)C)C(=O)C3=O,Active,,,,,,,,,,,,,
COc1cc2c3c(ccc2c(C)c1C)C=C(C(C)C)C(=O)C3=O,Active,,,,,,,,,,,,,
CC(C)c1cc2c(cc1O)[C@@]1(C)CCCC(C)(C)[C@@H]1CC2 [FERRUGINOL],,>7 mm,>7 mm,> 250 µg/mL,> 250 µg/mL,> 250 µg/mL,>7 mm,,,,,,,
CC(=O)O[C@@H]1C[C@H]2C(C)(C)CCC[C@]2(C)C2=C1C(=O)C(C(C)C)=C(O)C2=O,,>7 mm,>7 mm,6 µg/mL,10 µg/mL,3 µg/mL,>7 mm,inactive,inactive,inactive,inactive,inactive,inactive,
COc1cc2c(cc1C(C)C)CC[C@H]1C(C)(C)CCC[C@]21C(=O)O,,>7 mm,inactive,,,6.5 µg/mL,inactive,inactive,inactive,inactive,inactive,inactive,inactive,
COc1cc2c(ccc3c(C)c(C)ccc32)cc1C(C)C,Active,,,,,,,,,,,,,
CC(C)C1=C(O)C(=O)C2=C(C1=O)[C@H](O)C[C@H]1C(C)(C)CCC[C@]21C [HORMINONE],,>7 mm,>7 mm,1.5 µg/mL,6.5 µg/mL,1.5 µg/mL,>7 mm,inactive,inactive,inactive,inactive,inactive,>7 mm,14 µg/mL
